# According to patent US20250084453A1, “SYSTEMS, COMPOSITIONS AND METHODS FOR IDENTIFYING E3 LIGASE SUBSTRATES BY UBIQUITIN BIOTINYLATION” (The Broad Institute, Inc., priority 2022, published 2025):
# Assays:
# Type in all cases: cell-based, human
# [1] = test system: GSPT1; assay: GSPT1 degradation by Western blot in HEK293T cells and CRBN-/- derivatives
# Method: (§1) However, instead of assessing transiently-expressed V5-tagged IKZF1, an endogenous neo-substrate of CRBN, namely, GSPT1, was assessed. […] Following incubation with the components and added agents, the cells were lysed, and streptavidin-coated beads were used to capture from the cell lysate biotinylated, ubiquitinated proteins, e.g., the endogenous GSPT1 substrate. The biotinylated proteins eluted from the beads were subjected to Western blot analyses.
# [2] = test system: CRBN E3 ligase; assay: MS comparison of loss-of-function CRBN-BirA mutants (D249Y, W386A) with WT CRBN-BirA under CC-885; details: CC-885 1 μM, 1 hour; D249Y and W386A; FIGS. 16A, 16B
# Method: Experiments were performed to identify substrates of an E3 ligase using CRBN as a representative E3 ligase. The experiments compared loss-of-function mutants of an E3 ligase (e.g., CRBN E3 ligase) to the wildtype (WT) ligase. FIGS. 16A and 16B show the results of a mass spectrometry experiment in which protein substrates susceptible to CC-885 induced ubiquitination were identified. These experiments were performed in HEK293T^CRBN−/− cells transiently expressing A3-HA-Ub and either WT CRBN-BirA or CRBN-BirA mutant D249Y (FIG. 16A) or CRBN-BirA mutant W386A (FIG. 16B). Compared with CRBN(WT), CRBN(D249Y) had decreased association with the CRL4 complex, while CRBN(W386A) had decreased affinity for CC-885. Both mutants were expected to have a diminished ability to ubiquitinate CC-885-induced substrates. While cultured in biotin-free medium, the cells were pre-treated with carfilzomib (carf; 0.4 μM) for 1 hour, and then were treated with the IMiD derivative CC-885 (1 μM) for another hour. […] Enrichment of biotinylated species by streptavidin-coated beads, protein digestion, and protein identification and quantification by mass spectrometry were performed exactly as described in Example 3 and 4. […]
# [3] = test system: GSPT1; assay: Streptavidin pulldown and Western blot of biotinylated ubiquitinated GSPT1 in 293T CRBN-/- CRBN-BirA cells
# Method: as §1
# The cells were either treated or untreated with carfilzomib (0.4 μM) for 1 hour and were either treated or untreated with the CRBN-IMiD modifying agent CC-885 (1 μM) for another hour. […] As discussed above in Example 1, the GSPT1 substrate of BirA-tagged CRBN is expressed endogenously in 293T cells.
# The preparation of cellular lysate was as described above for Cell Lysis, except that the RIPA buffer was supplemented with COMPLETE™ EDTA-free protease inhibitor cocktail (Roche; 04693159001; 1 tablet per 10 ml of buffer), benzonase (Millipore; E1014; 1 μl per 10 ml of buffer), 1.5 mM MgCl2, 1 mM EGTA, and 10 mM NEM (N-ethylmaleimide). For each sample, 1 ml of 3 mg/ml lysate was rotated overnight at 4° C. with 50 μl of resuspended streptavidin Sepharose beads (CYTIVA™; 17511301), which were pre-washed with RIPA lysis buffer 3 times. For all steps that required pelleting of beads, centrifugation was performed at 400×g for 1 minute. On the next day, streptavidin beads were pelleted, and the supernatant (a.k.a. flow-through) was either saved for analysis by Western blotting or was discarded. Streptavidin beads were then washed two times with 1 ml of 2% SDS wash buffer (2% SDS, 25 mM Tris-HCl, pH 7.5), and three times with 0.5-1 ml of 2M urea wash buffer (2M urea, 50 mM Tris-HCl, pH 8). Between each wash, the beads were rotated at room temperature for at least 5 minutes. During the last wash, the beads and the washing buffer were transferred to a new microfuge tube. […] For mass spectrometry-based analysis, the procedures described in On-bead Digestion below were used.
# On the next day, the cells were transfected using pRK5-Avi-HA-ubiquitin or pRK5-A3-HA-ubiquitin in serum-free DMEM.
smiles,measurement,setting,value
Cc1ccc(NC(=O)NCc2ccc3c(c2)CN(C2CCC(=O)NC2=O)C3=O)cc1Cl (stereo not shown) [CC-885],"GSPT1 degradation (Western blot, FIG. 5A)","[1]; 293T CRBN-/- CRBN-BirA cells with Avi-HA-Ub, 1 μM, 2 hours",degraded
same,GSPT1 degradation (Western blot),"[1]; 293T CRBN-/- cells expressing BirA-CRBN or CRBN-BirA, 1 μM, 4 hours",degraded
same,GSPT1 degradation (Western blot),"[1]; 293T CRBN-/- cells, 1 μM, 4 hours",not degraded
same,GSPT1 degradation (Western blot),"[1]; HEK293T cells, 10 nM, 100 nM, 1 μM or 10 μM for 3.5 hours",degraded in cells in a dose-dependent matter
same,Induced ubiquitinated substrates revealed by decreased biotinylation with CRBN-BirA mutants versus WT,[2],"GSPT1, GSPT2, VCL and CSNK1A1"
same,"Specific signal, normalized GSPT1/biotin ratios","[3]; A3-tag compared to Avi-tag, FIG. 6C",increase in specific signal
same,Sensitivity in detecting CC-885-induced ubiquitination of GSPT1 by CRBN,"[3]; A3-tag, FIG. 6C",36.39
same,Ubiquitinated GSPT1 captured by streptavidin beads compared with DMSO,"[3]; Avi-HA-Ub, 1 μM, 2 hours, Western blot quantification (FIG. 5C)",6-12 fold
same,Mono- and poly-ubiquitinated GSPT1 captured by streptavidin beads,"[3]; Avi-HA-Ub, FIG. 5C",only observed in conditions where CC-885 was present
same,Sensitivity in detecting CC-885-induced ubiquitination of GSPT1 by CRBN,"[3]; Avi-tag, FIG. 6C",15.46
